≈ marks a conversion by molar mass, not a printed value. Like-named read-outs stand apart in the source and are kept apart here.
What was measured:
[1] = Gerster c.s., 25th Intersc. Conf. Antimicrob. Agents and Chemotherapy, 1985; cited from earlier work
[2] = system: Staph. aureus; assay: Antibacterial activity, MIC and MBC (Table II); type: cell-based; conditions: Minimum Inhibitory Concentration, assay in duplicate (two lines)
Source text: (§1) GBR 23790 is (S)-9-fluoro-3-methyl-10-(4-methyl-1-piperazinyl)-2,3-dihydro-7-oxo-7H-pyrido[1,2,3-de][1,4]-benzothiazine-6-carboxylic acid, which is S-ofloxacin, but with the ring oxygen atom substituted by a ring sulfur atom. • MIC = Minimum Inhibitory Concentration (mg/I) • MBC = Minimum Bactericidal Concentration (mg/I) Each assay has been carried out in duplicate. GBR 23790 in racemic form is known from EP 0165375 (compound (p) in Table I). Its MIC-values, are for bacteria 1, 2 and 4 in the above Table II, resp. 0.78, 0.78 and 50.

[3] = system: E. coli; assay: Antibacterial activity, MIC and MBC (Table II); type: cell-based; conditions: Escherichia coli, assay in duplicate (two lines); for MBC: Minimum Bactericidal Concentration; for MIC: Minimum Inhibitory Concentration
Source text: as §1

[4] = system: Ps. aeruginosa; assay: Antibacterial activity, MIC and MBC (Table II); type: cell-based; conditions: assay in duplicate (two lines); for MBC: Minimum Bactericidal Concentration; for MIC: Minimum Inhibitory Concentration
Source text: as §1

[5] = system: Strep. faecalis; assay: Antibacterial activity, MIC and MBC (Table II); type: cell-based; conditions: Enterococcus faecalis, assay in duplicate (two lines); for MBC: Minimum Bactericidal Concentration; for MIC: Minimum Inhibitory Concentration
Source text: as §1

[6] = system: E. coli; conditions: bacterium 2 of Table II (E. coli); from EP 0165375; cited from earlier work
[7] = system: Ps. aeruginosa; conditions: bacterium 4 of Table II (Ps. aeruginosa); from EP 0165375; cited from earlier work
[8] = system: Staph. aureus; conditions: bacterium 1 of Table II (Staph. aureus); from EP 0165375; cited from earlier work
[9] = Pseudomonas aeruginosa, read-out: MBC

| Compound | antibacterial activity in vitro [1] | MBC [3] | MIC [3] | MBC [4, 9] | MIC ([4]; Pseudomonas aeruginosa) | MBC [5] | MIC [5] | further results |
| --- | --- | --- | --- | --- | --- | --- | --- | --- |
| Cc1c(F)cc2c(=O)c(C(=O)O)cn3c2c1CC[C@@H]3C [(S)-(-)-isomer of 6,7-dihydro-5,8-dimethyl-9-fluoro-1-oxo-1 ] [6,7-dihydro-5,8-dimethyl-9-fluoro-1-oxo-1 H,5H-benzo[ij]quinolizine-2-carboxylic acid] | potent antibacterial activity | – | – | – | – | – | – | – |
| C[C@H]1CSc2c(N3CCN(C)CC3)c(F)cc3c(=O)c(C(=O)O)cn1c23 [GBR 23790, (S)-9-fluoro-3-methyl-10-(4-methyl-1-piperazinyl)-2,3-dihydro-7-oxo-7H-pyrido[1,2,3-de][1,4]-benzothiazine-6-carboxylic acid] | – | 0.08 µg/mL (≈ 0.212 µM) | 0.08 µg/mL (≈ 0.212 µM) | 2.5 µg/mL (≈ 6.62 µM) | 1.25 µg/mL (≈ 3.31 µM) | 2.5 µg/mL (≈ 6.62 µM) | 1.25 µg/mL (≈ 3.31 µM) | MIC [2]: 0.16 mg/I; MIC ([2]; Staphylococcus aureus, read-out: MIC): 0.08 µg/mL (≈ 0.212 µM) |
| CC1CSc2c(N3CCN(C)CC3)c(F)cc3c(=O)c(C(=O)O)cn1c23 (racemic) [GBR 23790 in racemic form] | – | – | – | – | – | – | – | MIC-values [6]: 0.78 mg/I; MIC-values [7]: 50 mg/I; MIC-values [8]: 0.78 mg/I |
| C[C@H]1COc2c(N3CCN(C)CC3)c(F)cc3c(=O)c(C(=O)O)cn1c23 [(S)-ofloxacin, (S)-(-)-9-Fluoro-2,3-dihydro-3-methyl-10-(4-methyl-1-piperazinyl)-7-oxo-7H-pyrido[1,2,3-de][i ,4]benzoxazine-6-carboxylic acid] | – | 0.04 µg/mL (≈ 0.111 µM) | 0.04 µg/mL (≈ 0.111 µM) | 0.63 µg/mL (≈ 1.74 µM) | 0.63 µg/mL (≈ 1.74 µM) | 1.25 µg/mL (≈ 3.46 µM) | 1.25 µg/mL (≈ 3.46 µM) | MBC [4]: 1.25 mg/I |
| Cc1c(F)cc2c(=O)c(C(=O)O)cn3c2c1CCC3C (single isomer, unassigned) [(R)-(+)-isomer, 6,7-dihydro-5,8-dimethyl-9-fluoro-1-oxo-1 H,5H-benzo[ij]quinolizine-2-carboxylic acid] | much less active | – | – | – | – | – | – | – |
